{
  "source": "patent US10016365B2",
  "about": "“Compositions and methods of tumor treatment utilizing nanoparticles” (priority 2015, dated 2018)",
  "key": {"[1]": {"test_system": "human ovarian cancer cell line ES-2", "format": "in vivo", "settings": "regional delivery", "description": "(§1) Experiments were repeated in triplicate.\nas §1, §1, §1, §1"}, "[2]": {"test_system": "metastatic non-small lung cancer", "settings": "P=0.271; cited from earlier work"}, "CT-26-luc cells": {"test_system": "CT-26-luc cells", "assay": "Antitumor activity in colon cancer syngeneic mice model (CT-26-luc i.p., BLI and survival)", "format": "in vivo, BALB/c mice", "description": "Tumor cell growth was determined by measuring bioluminescence images (BLI) using IVIS system. Treatments were initiated when the tumor dissemination (judged by luminescence activity) reached baseline. […] Survival of these animals was recorded.\nFive-week-old female BALB/c mice were purchased from the National Laboratory Animal Breeding and Research Center of Taipei and maintained in the oncology animal facility of Taipei Veterans General Hospital, Taipei, Taiwan. The animals were used in compliance with the institutional animal health care regulations, and all of the animal experimental procedures were approved by the Institutional Animal Care and Use Committee.\nExact dosing volume was calculated using body weight. Control group was given 100 ul of 0.9% Sodium Chloride Injection.\nBALB/c mice (6 weeks) were injected with 1×10^5 CT-26-luc cells in 250 ul opti-MEM by i.p. on Day 0 (D0). After 4 days (D4), tumor cell growth was determined by measuring luminescence activity using IVIS system (baseline). Each group Bioluminescence images (BLI) was normalized by average BLI of total mice before treatment. […] Animals were monitored individually till death for survival evaluation.\nThe mice were imaged with the IVIS-50 system (Xenogen, Alameda, Calif.).\nOverall survival was defined as the time from the date of tumor implantation to the date of death and is presented as the Kaplan-Meier survival curve."}, "recurrent ovarian tumor": {"test_system": "recurrent ovarian tumor", "settings": "HIPEC, 10 mg/kg", "procedure": "Depicted are inflow and outflow ports and anal temperature probe to monitor internal temperature of mouse during perfusion. Mice were perfused for 1 h at the rate of 3 mL/min with Taxol® (10 mg/kg). […] Experiments were repeated in triplicate."}, "[3]": {"test_system": "human ovarian cancer cell line ES-2", "assay": "Flow cytometry apoptosis assay of tumor after treatment", "format": "in vivo, SCID mice", "settings": "systematic delivery", "source_text": "A single intraperitoneal injection of human ovarian cancer cell line ES-2 (2×10^5 cells per mouse, ATCC no. CRL-1978) at d0 into 5-week-old SCID mice (CB.17 scid/scid) was commenced to generate tumor, which was confirmed via abdominal distension and malignant ascites in 3 weeks. […] Animals were used in compliance with institutional animal health care regulations, and all animal experimental procedures were approved by the Institutional Animal Care and Use Committee. Tumor-bearing mice were euthanized at the endpoint when there were signs of distress, including fur ruffling, rapid respiratory rate, hunched posture, reduced activity, and progressive ascites formation. Groups of mice were treated. A 2-factor factorial design was implemented with factor 1 (systematic delivery versus regional delivery) and factor 2 (free drug versus nanomedicine). […] The dosing schedule for each paired drugs (free drug and nanomedicine) was given on maximal tolerated dose based on preliminary study."}, "lung metastases": {"test_system": "lung metastases", "assay": "Lung metastases model (tail vein injection of tumor cells)", "format": "in vivo, SCID mice", "procedure": "(7B) Control of lung metastases. Mouse was induced lung metastases by tail vein injection of tumor cells at d1.\nAnimals were used in compliance with institutional animal health care regulations, and all animal experimental procedures were approved by the Institutional Animal Care and Use Committee. […] Groups of mice were treated. A 2-factor factorial design was implemented with factor 1 (systematic delivery versus regional delivery) and factor 2 (free drug versus nanomedicine). […] The dosing schedule for each paired drugs (free drug and nanomedicine) was given on maximal tolerated dose based on preliminary study. Lung metastases were induced by tail-vein injection, while liver metastases were by splenic injection, and retroperitoneal lymphatic metastases were induced by intra-uterine injection of tumor cells."}, "[4]": {"test_system": "cancer stem cells of ES-2 tumors", "assay": "Cancer stem cell analysis of treated tumors (tumor sphere, side population, RT-PCR)", "format": "in vivo, SCID mice", "description": "(8A) Tumor sphere-forming ability of treated tumor. Mouse was implanted with ES-2 cells (2×10^6/mouse) at day 1 and was treated at day 5, day 8, and day 11 at indicated dosage. Tumors were retrieved at day 14 for each indicated group. Tumors were dissociated into single cell suspension and cultured in an ultralow dish for 10 days. […] Representative figures are shown. (8B) Summary of tumor sphere formation (mean±SD). (8C) Flow cytometry analysis of Hoechst 33342-stained cells and identification of side population cells. Percentage of side population cells are shown. (D-G) RT-PCR analysis for the expressions of stemness marker (8D), genes for epithelial-mesenchymal transition (EMT) driver and expression of epithelial or mesenchymal phenotype (8E), genes for tumor angiogenesis (8F), and genes for multidrug resistance (8G). (8H) CXCR4/CXCL12 axis in stem cells maintenance. […] Experiments were repeated in triplicate."}, "[5]": {"settings": "human, in vivo, ip; cited from earlier work"}, "[6]": {"settings": "hepatic artery infusion; cited from earlier work"}},
  "note": "Read-outs that look alike come from different tables or passages of the source.",
  "data": [
    {"smiles": "CC(=O)O[C@H]1C(=O)[C@@]2(C)[C@H]([C@H](OC(=O)c3ccccc3)[C@]3(O)C[C@H](OC(=O)[C@H](O)[C@@H](NC(=O)c4ccccc4)c4ccccc4)C(C)=C1C3(C)C)[C@]1(OC(C)=O)CO[C@@H]1C[C@@H]2O", "note": "[Taxol®, paclitaxel]", "values": [
      {"measurement": "therapeutic efficacy (bioluminescence imaging day 14 vs day 4)", "setting": "[1]; 10 mg/kg/mouse, day 5, 8, 11 (FIG. 2B)", "result": "some efficacy"},
      {"measurement": "therapeutic efficacy (bioluminescence imaging day 14 vs day 4)", "setting": "[1]; 10 mg/kg/mouse, day 5, 8, 11 (FIG. 6)", "result": "some efficacy"},
      {"measurement": "median overall survival", "setting": "[2]", "result": 11.2, "unit": "months"},
      {"measurement": "inhibition of colon tumor growth / antitumor activity", "setting": "CT-26-luc cells; 10 mg/kg i.p.", "result": "did not inhibit colon tumor growth"},
      {"measurement": "median survival day", "setting": "CT-26-luc cells; 10 mg/kg i.p.", "result": 26, "unit": "days"},
      {"measurement": "survival duration", "setting": "CT-26-luc cells; 10 mg/kg i.p.", "result": 27, "unit": "days"},
      {"measurement": "inhibition of colon tumor growth", "setting": "CT-26-luc cells; 10 mg/kg i.v.", "result": "did not inhibit colon tumor growth"},
      {"measurement": "median survival day", "setting": "CT-26-luc cells; 10 mg/kg i.v.", "result": 24, "unit": "days"},
      {"measurement": "survival duration", "setting": "CT-26-luc cells; 10 mg/kg i.v.", "result": 27, "unit": "days"},
      {"measurement": "complications (bowel obstruction or perforation)", "setting": "recurrent ovarian tumor", "result": "higher"},
      {"measurement": "tumor control of recurrent tumor", "setting": "recurrent ovarian tumor; perfused 1 h at 3 mL/min", "result": "good tumor control"},
      {"measurement": "apoptosis of tumor", "setting": "[3]", "result": 23.3, "unit": "%"},
      {"measurement": "control of lung metastases", "setting": "lung metastases; regional (intrapleural) delivery", "result": "some therapeutic efficacy"},
      {"measurement": "control of lung metastases", "setting": "lung metastases; systematic delivery", "result": "unsatisfactory control of tumor"},
      {"measurement": "CXCR4/CXCL12 expression compared to control group", "setting": "[4]; i.v. delivery", "result": "increased expression of CXCR4/CXCL12"},
      {"measurement": "side population cells (Hoechst 33342)", "setting": "[4]; regional delivery", "result": "increased"},
      {"measurement": "tumor sphere (microsphere) formation of treated tumor", "setting": "[4]; systematic (i.v.) delivery, tumors retrieved day 14, cultured 10 days", "result": "increased microsphere formation"},
      {"measurement": "side population cells (Hoechst 33342)", "setting": "[4]; systematic delivery", "result": "increased"}
    ]},
    {"smiles": "N.N.[Cl][Pt][Cl]", "note": "[cisplatin]", "values": [
      {"measurement": "therapeutic efficacy (bioluminescence imaging day 14 vs day 4)", "setting": "[1]; 5 mg/kg/mouse, day 5 and 10 (FIG. 3B)", "result": "some therapeutic effect"},
      {"measurement": "increased exposure to the peritoneal cavity as compared to the systemic compartment", "setting": "[5]", "result": 20, "unit": "fold"}
    ]},
    {"smiles": "COc1cccc2c1C(=O)c1c(O)c3c(c(O)c1C2=O)C[C@@](O)(C(=O)CO)C[C@@H]3O[C@H]1C[C@H](N)[C@H](O)[C@H](C)O1", "note": "[doxorubicin]", "values": [
      {"measurement": "therapeutic efficacy (bioluminescence imaging day 14 vs day 4)", "setting": "[1]; 5 mg/kg/mouse, day 5 and 10 (FIG. 5)", "result": "some therapeutic effect"}
    ]},
    {"smiles": "O=c1[nH]c(=O)n([C@H]2C[C@H](O)[C@@H](CO)O2)cc1F", "note": "[floxuridine]", "values": [
      {"measurement": "higher tumor drug levels as compared to portal vein infusion", "setting": "[6]", "result": 15, "unit": "fold"}
    ]},
    {"smiles": "CC[C@@]1(O)C(=O)OCc2c1cc1n(c2=O)Cc2cc3c(CN(C)C)c(O)ccc3nc2-1", "note": "[topotecan]", "values": [
      {"measurement": "therapeutic efficacy (bioluminescence imaging day 14 vs day 4)", "setting": "[1]; 10 mg/kg/mouse, day 5 and 10 (FIG. 4B)", "result": "some therapeutic effect"}
    ]}
  ]
}
